Assay results reported in publication PMC6222997, “Cloning, purification, and characterization of an organic solvent-tolerant chitinase, MtCh509, from Microbulbifer thermotolerans DAU221” (Biotechnology for Biofuels, 2018).

Target: T1, MtCh509 (Microbulbifer thermotolerans, UniProt A0A143HNF3)
T1 construct: gene A3224_11035; full-length precursor 509 aa; cloned without signal peptide, N-terminal His6 (pCold I), E. coli BL21(DE3); ~60 kDa; GH18 catalytic domain plus ChtBD3
Assay: TLC of hydrolysis products
Assay type: biochemical
Settings: 50 mM citrate buffer pH 5.0, 55 °C; 0.3 μg enzyme

T1 sequence (A0A143HNF3 entry or part of it): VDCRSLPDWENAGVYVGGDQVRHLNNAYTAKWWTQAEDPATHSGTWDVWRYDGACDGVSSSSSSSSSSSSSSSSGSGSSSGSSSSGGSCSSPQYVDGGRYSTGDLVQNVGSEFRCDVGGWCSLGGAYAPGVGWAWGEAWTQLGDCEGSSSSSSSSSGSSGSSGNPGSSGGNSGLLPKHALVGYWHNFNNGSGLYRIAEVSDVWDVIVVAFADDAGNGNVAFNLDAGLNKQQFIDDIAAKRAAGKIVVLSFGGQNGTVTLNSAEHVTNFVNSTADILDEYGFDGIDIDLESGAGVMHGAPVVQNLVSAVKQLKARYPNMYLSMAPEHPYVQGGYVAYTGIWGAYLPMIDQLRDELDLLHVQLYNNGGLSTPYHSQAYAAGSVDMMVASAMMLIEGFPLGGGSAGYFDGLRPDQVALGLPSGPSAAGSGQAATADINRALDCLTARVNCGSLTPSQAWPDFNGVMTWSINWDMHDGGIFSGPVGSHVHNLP

With `CC(=O)N[C@H]1[C@H](O[C@H]2[C@H](O)[C@@H](NC(C)=O)[C@H](O[C@H]3[C@H](O)[C@@H](NC(C)=O)C(O)O[C@@H]3CO)O[C@@H]2CO)O[C@H](CO)[C@@H](O[C@@H]2O[C@H](CO)[C@@H](O[C@@H]3O[C@H](CO)[C@@H](O[C@@H]4O[C@H](CO)[C@@H](O)[C@H](O)[C@H]4NC(C)=O)[C@H](O)[C@H]3NC(C)=O)[C@H](O)[C@H]2NC(C)=O)[C@@H]1O` (stereo partly shown) [NAG6] as the compound, how does the “TLC of hydrolysis products” value read?
Its value is “NAG6 (Fig. 5E) was finally degraded to NAG3 and NAG2”.
